# Active and inactive are the calls of the source. The calls are words filed in the database; no cut-off is given here.
# Experiments:
# Rattus norvegicus [1] = assay: DOM appropriate response rate in % at 1.0 mg/kg where stimulus generalization occurred (5/5 no of animals); format: functional
# [2] = target: T1, 5-hydroxytryptamine receptor 1A (Rattus norvegicus, UniProt P19327); assay: Binding affinity against 5-hydroxytryptamine 1A receptor in rat hippocampal tissue; format: tissue-based, Hippocampus
# T1 sequence (P19327 whole entry): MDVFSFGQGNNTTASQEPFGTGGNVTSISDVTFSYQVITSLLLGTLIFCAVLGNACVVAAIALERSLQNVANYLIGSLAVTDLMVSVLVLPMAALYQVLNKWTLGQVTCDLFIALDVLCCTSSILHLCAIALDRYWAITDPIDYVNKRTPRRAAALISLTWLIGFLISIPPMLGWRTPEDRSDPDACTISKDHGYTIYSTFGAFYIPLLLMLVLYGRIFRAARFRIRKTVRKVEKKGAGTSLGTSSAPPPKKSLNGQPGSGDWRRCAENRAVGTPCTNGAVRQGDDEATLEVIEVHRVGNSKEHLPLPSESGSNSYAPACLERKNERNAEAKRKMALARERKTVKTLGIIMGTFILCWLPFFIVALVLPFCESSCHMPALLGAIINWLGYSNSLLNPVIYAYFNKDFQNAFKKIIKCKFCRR
# Rattus norvegicus [3] = assay: DOM appropriate response of animals/min at 1.0 mg/kg where stimulus generalization occurred (5/5 no of animals); format: functional
# [4] = target: T2, 5-hydroxytryptamine receptor 1B (Rattus norvegicus, UniProt P28564); assay: Binding affinity against 5-HT1B serotonin receptor in rat striatum; format: tissue-based
# Rattus norvegicus [5] = assay: 8-OH-DPAT appropriate response of animals/min rate in %0.2 mg/Kg where stimulus generalization occurred(7/7 no of animals); format: functional
# Rattus norvegicus [6] = assay: The dose at which the animals would show 50% response on 8-OH-DPAT appropriate lever at a dose 0.2 mg/kg (7/7 no of animals); format: functional
# [7] = target: T3, Serotonin 2 (5-HT2) receptor (Rattus norvegicus, UniProt P30994+P08909+P14842); assay: Binding affinity towards 5-hydroxytryptamine 2 receptor using [3H]- ketanserin as radioligand; format: protein assay
# Rattus norvegicus [8] = assay: 8-OH-DPAT appropriate response rate in % at 0.2 mg/kg where stimulus generalization occurred(7/7 no of animals); format: functional
# [9] = target: T3, Serotonin 2 (5-HT2) receptor; assay: Binding affinity towards 5-hydroxytryptamine 2 receptor using [3H]- 1-(4-bromo-2,5-dimethoxy-phenyl)-2-aminopropane (D) as radioligand; format: protein assay
# [10] = target: T1, 5-hydroxytryptamine receptor 1A; assay: Binding affinity towards 5-hydroxytryptamine 1A receptor
# [11] = target: T2, 5-hydroxytryptamine receptor 1B; assay: Evaluated for binding affinity towards 5-hydroxytryptamine 1B receptor
# Rattus norvegicus [12] = species: Rattus norvegicus; assay: DOM appropriate response rate in % at […] where stimulus generalization occurred(5/5 no of animals); format: functional
# Rattus norvegicus [13] = assay: 8-OH-DPAT appropriate response of animals/min rate in % 0.8 mg/kg where stimulus generalization occurred(3/4 no of animals); format: functional
# Rattus norvegicus [14] = assay: 8-OH-DPAT appropriate response rate in % at 1.0 mg/kg where stimulus generalization occurred(4/5 no of animals); format: functional
# Rattus norvegicus [15] = assay: 8-OH-DPAT appropriate response of animals/min rate in % 0.9 mg/kg where stimulus generalization occurred(4/7 no of animals); format: functional
# Rattus norvegicus [16] = assay: 8-OH-DPAT appropriate response rate in % at 0.8 mg/kg where stimulus generalization occurred(3/4 no of animals); format: functional
# Rattus norvegicus [17] = assay: DOM appropriate response rate in % at 5.0 mg/Kg where stimulus generalization occurred(4/5 no of animals); format: functional
# Rattus norvegicus [18] = assay: 8-OH-DPAT appropriate response rate in % at 1.1 mg/kg where stimulus generalization occurred(4/5 no of animals); format: functional
# Rattus norvegicus [19] = assay: DOM appropriate response of animals/min rate in % at 5.0 mg/Kg where stimulus generalization occurred(4/5 no of animals); format: functional
# Rattus norvegicus [20] = assay: The dose at which the animals would show 50% responses on DOM appropriate lever at a dose 6.0 mg/kg; format: functional
# Rattus norvegicus [21] = assay: DOM appropriate response of animals/min rate in % at 6.0 mg/Kg where stimulus generalization occurred(3/5 no of animals); format: functional
# Rattus norvegicus [22] = assay: 8-OH-DPAT appropriate response rate in % at 0.9 mg/kg where stimulus generalization occurred (4/7 no of animals); format: functional
# Rattus norvegicus [23] = assay: DOM appropriate response of animals/min rate in % at 0.6 mg/Kg where stimulus generalization occurred(5/5 no of animals); format: functional
# Rattus norvegicus [24] = assay: 8-OH-DPAT appropriate response rate in % at 0.4 mg/kg where stimulus generalization occurred(4/5 no of animals); format: functional
# Rattus norvegicus [25] = assay: DOM appropriate response of animals/min rate in % at 2.0 mg/kg where stimulus generalization occurred(4/5 no of animals); format: functional
# Rattus norvegicus [26] = species: Rattus norvegicus; assay: DOM appropriate response of animals/min rate in % at […] where stimulus generalization occurred(5/5 no of animals); format: functional
# Rattus norvegicus [27] = assay: DOM appropriate response rate in % at 0.6 mg/Kg where stimulus generalization occurred(5/5 no of animals); format: functional
# Rattus norvegicus [28] = assay: 8-OH-DPAT appropriate response of animals/min rate in % 1.0 mg/kg where stimulus generalization occurred(4/5 no of animals); format: functional
# Rattus norvegicus [29] = assay: 8-OH-DPAT appropriate response of animals/min rate in % 1.1 mg/kg where stimulus generalization occurred(4/5 no of animals); format: functional
# Rattus norvegicus [30] = species: Rattus norvegicus; assay: 8-OH-DPAT appropriate response rate in % at […] where stimulus generalization occurred(2/5 no of animals); No responding; format: functional, organism-based; design: dose 1.2 mg/kg
# Rattus norvegicus [31] = assay: DOM appropriate response rate in % at 2.0 mg/Kg where stimulus generalization occurred(4/5 no of animals); format: functional
# Rattus norvegicus [32] = assay: DOM appropriate response rate in % at 6.0 mg/Kg where stimulus generalization occurred(3/5 no of animals); format: functional
# Rattus norvegicus [33] = assay: 8-OH-DPAT appropriate response of animals/min rate in % 0.4 mg/kg where stimulus generalization occurred(4/5 no of animals); format: functional
# Rattus norvegicus [34] = species: Rattus norvegicus; assay: The dose at which the animals would show 50% responses on compound-appropriate lever; format: functional
# Rattus norvegicus [35] = species: Rattus norvegicus; assay: The dose at which the animals show 50% responses on drug-appropriate lever; format: functional
# T2 sequence (P28564 whole entry): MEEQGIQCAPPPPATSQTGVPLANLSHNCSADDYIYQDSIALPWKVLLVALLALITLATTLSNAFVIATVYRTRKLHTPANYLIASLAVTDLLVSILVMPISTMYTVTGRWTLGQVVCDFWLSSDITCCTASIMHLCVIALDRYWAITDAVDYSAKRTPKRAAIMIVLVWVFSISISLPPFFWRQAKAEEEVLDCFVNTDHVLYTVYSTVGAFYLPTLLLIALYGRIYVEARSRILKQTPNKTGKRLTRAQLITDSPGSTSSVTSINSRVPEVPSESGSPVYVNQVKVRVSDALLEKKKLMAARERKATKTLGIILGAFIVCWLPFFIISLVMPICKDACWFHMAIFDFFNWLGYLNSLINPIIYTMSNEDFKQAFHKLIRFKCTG
structure (smiles),measurement,setting,value
COc1cc(CC(C)N)c(OC)cc1C (configuration not stated) [DOM],Responding,Rattus norvegicus [1],92%
same,Ki,[2],5120 nM
same,Response,Rattus norvegicus [3],12.8
same,Ki,[4],2070 nM
CCCN(CCC)C1CCc2cccc(O)c2C1 (configuration not stated) [8-OH-DPAT],Response,Rattus norvegicus [5],16.8
same,ED50,Rattus norvegicus [6],0.08 mg/kg
same,Ki,[7],5350 nM
same,Responding,Rattus norvegicus [8],88%
same,Ki,[9],635 nM
CCCN(CCC)CCc1c[nH]c2ccc(O)cc12,Ki,[10],7.1 nM
same,Ki,[7],450 nM
same,Ki,[9],1 nM
same,Ki,[11],4300 nM
CCCN(CCC)CCc1c[nH]c2ccc(OC)cc12,Responding,Rattus norvegicus [12],49%
same,Response,Rattus norvegicus [13],9.2
same,Responding,Rattus norvegicus [14],67%
same,Response,Rattus norvegicus [15],13.6
same,Responding,Rattus norvegicus [16],56%
same,Responding,Rattus norvegicus [17],74%
same,Responding,Rattus norvegicus [18],81%
same,Response,Rattus norvegicus [19],10.3
same,ED50,Rattus norvegicus [20],1.68 mg/kg
same,Response,Rattus norvegicus [21],5.2
same,Responding,Rattus norvegicus [22],56%
same,Response,Rattus norvegicus [23],10.2
same,Responding,Rattus norvegicus [24],15%
same,Response,Rattus norvegicus [25],12
same,Response,Rattus norvegicus [26],12.3
same,Ki,[10],4 nM
same,Responding,Rattus norvegicus [27],21%
same,Ki,[7],655 nM
same,Response,Rattus norvegicus [28],5.6
same,Response,Rattus norvegicus [29],4.1
same,Responding,Rattus norvegicus [30],inactive
same,Responding,Rattus norvegicus [31],51%
same,Responding,Rattus norvegicus [32],91%
same,Response,Rattus norvegicus [33],13.6
same,Ki,[9],7.1 nM
same,Ki,[11],1800 nM
CCCN(CCC)C1CCc2cccc(OC)c2C1 (configuration not stated),Ki,[10],1.3 nM
same,Ki,[7],3050 nM
same,ED50,Rattus norvegicus [34],0.22 mg/kg
same,Ki,[9],280 nM
same,Ki,[11],> 1000 nM
COc1ccc2[nH]cc(CCN(C)C)c2c1 [MEBUFOTENIN],Ki,[10],7.8 nM
same,ED50,Rattus norvegicus [35],1.43 mg/kg
same,Ki,[11],350 nM

# — ChEMBL document CHEMBL1124092 (J Med Chem, 1988)
